Holding throughout (test): DTP human tumour cell line panel, 48 h
Test [1] has as its system SK-MEL-2.
Test [2] has as its system A549.
The subject of test [3] is HCT-116.
Test [4] relates to UACC-62.
For test [5], the system named is SK-MEL-5.
Test [6] deals with SN12C.
For test [7], the system named is MCF7.
Test [8] has as its system SNB-19.
In test [9] the test system is KM12.
The test system of test [10] is HL-60.
Test [11] concerns RPMI-8226.
Test [12] deals with HOP-62.
In test [13] the test system is Malme-3M.
For test [14], the system named is SF-295.
The subject of test [15] is SW-620.
In test [16] the test system is UACC-257.
Test [17] concerns IGROV-1.
In test [18] the test system is MOLT-4.
Test [19] has as its system HCT-15.
In test [20] the test system is CCRF-CEM.

Here are results for seven compounds from ChEMBL document CHEMBL1201862, “PubChem BioAssay data set” (2004).

A word on the GI50: it is the concentration that inhibits growth by half.

Several values for one entry are separate records, joined by “and”; a condition that tells them apart may be missing. Equal values may be shown once.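 Protocol summary: plate cells (96-well), add compound at 5 concentrations, incubate 48 h, interpolate endpoints linearly. Here, GI50 denotes the concentration required for 50% inhibition of growth.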 Activity calls are given as the source filed them. Rule as the data show it: active = GI50 up to about 1.1 µM and inactive = higher.

Consider `C=C1C(=O)OCC2C(C(=O)O)=CC3C(C)C(C)=CC123` (stereo not drawn), for which the GI50 is 7.21 µM (inactive) in test [1]; 20.7 µM (inactive) in test [2]; 9.48 µM (inactive) in test [3]; 5.41 µM (inactive) in test [4]; 9.31 µM (inactive) in test [5]; 8.73 µM (inactive) in [6]. For the same compound, the GI50 is 8.13 µM (inactive) in test [7]; 11.8 µM (inactive) in test [8]; 9.93 µM (inactive) in [9]; 9.33 µM (inactive) in [10]; 7.23 µM (inactive) in test [11]; 12.2 µM (inactive) in [12]. The GI50 in test [13] is 7.33 µM (inactive); in test [14], 15 µM (inactive); in test [15], 9.31 µM (inactive); in test [16] it was 16.7 µM (inactive); in [17] it was 11.9 µM (inactive); in test [18] it was 7.82 µM (inactive). Also, the GI50 is 11 µM in test [19] and 7.74 µM (inactive) in [20].
Turning to `CCOc1ccc2nc(-c3ccc(O)cc3)sc2c1`, the GI50 in test [1] was 71 µM (inactive); in test [2], > 100 µM (inactive); in [3] it was 69.3 µM (inactive); in test [4], 56.9 µM (inactive); in test [5], 89.5 µM (inactive); in [6], > 100 µM (inactive). Moreover, the GI50 was > 100 µM (inactive) in [7]; 23.9 µM (inactive) in [8]; 35 µM (inactive) in [9]; 2 µM (inactive) in test [10]; 0.106 µM (active) in test [11]; > 100 µM (inactive) in [13]. Also, the GI50 in test [14] is 20.1 µM (inactive); in [15], > 100 µM (inactive); in [16], 0.166 µM (active); in test [17], > 100 µM (inactive); in [18], > 100 µM (inactive); in test [19], 97.3 µM.
As to `CN(C)CC(CC1=C(CC(CN(C)C)N(C)C)CCC1)N(C)C` (stereo not drawn), the GI50 in test [1], in [2], in test [3], in [4], in [5] and in test [6] was > 100 µM (inactive) throughout. Besides, the GI50 in [7], in test [8], in test [9], in test [10], in test [11] and in [12] was > 100 µM (inactive) each time. Also, the GI50 in [13], in [14], in test [15], in test [16], in test [17] and in test [18] was > 100 µM (inactive) throughout. Also, the figures for the GI50 in [19] and in test [20] were above 100 µM and > 100 µM (inactive), respectively.
As to `Nc1ccc(/N=N/c2ccc(/C=C/c3ccc(/N=N/c4ccc(N)c5ccc(S(=O)(=O)O)cc45)cc3S(=O)(=O)O)c(S(=O)(=O)O)c2)c2cc(S(=O)(=O)O)ccc12`, the GI50 in [1], in test [2], in [3], in [4], in test [5] and in test [6] was > 100 µM (inactive) throughout. In addition, the GI50 in test [7], in test [8], in test [9], in test [10], in [11] and in test [12] was > 100 µM (inactive) throughout. Also, the GI50 in [13], in test [14], in [15], in test [16], in test [17] and in test [18] was > 100 µM (inactive) in each case. Also, the results for the GI50 in test [19] and in test [20] were above 100 µM and > 100 µM (inactive), respectively.
Consider `COc1ccc(C2=N/C(=C\c3ccccc3)C(=O)O2)cc1`, for which the GI50 in test [1] is > 100 µM (inactive); in [2] it was > 100 µM (inactive); in test [7] it was > 100 µM (inactive); in [8], 75.7 µM (inactive); in [9], 36.6 µM (inactive); in test [10] it was 12.2 µM (inactive). Also, the GI50 is 36.6 µM (inactive) in [11]; 38.7 µM (inactive) in test [12]; > 100 µM (inactive) in test [14]; > 100 µM (inactive) in test [15]; > 100 µM (inactive) in [16]; > 100 µM (inactive) in test [17]. The results for the GI50 in test [18], in [19] and in test [20] were 13.3 µM (inactive), 52.1 µM and 31 µM (inactive), respectively.
Take `CCCCCCCCCCSCC(CO)NC(=O)/C=C/c1c(C)[nH]c(=O)[nH]c1=O` (stereo not drawn): the GI50 is 1.25 µM (inactive) and 804 nM (active) in [1]; 32.8 µM (inactive) and > 50 µM (inactive) in test [2]; 1.26 µM (inactive) and 1.29 µM (inactive) in test [3]; 1.03 µM (active) and 1.17 µM (inactive) in test [4]; 1.16 µM (inactive) and 1.36 µM (inactive) in test [5]; 1.37 µM (inactive) and 1.09 µM (active) in test [6]. The concentration for 50% growth inhibition (GI50) in test [7] is 753 nM (active) and 1.17 µM (inactive); in test [8], 881 nM (active) and 925 nM (active); in test [9], 1.42 µM (inactive) and 2.05 µM (inactive); in test [10] it was 1.82 µM (inactive) and 1.42 µM (inactive); in test [11], 23.1 µM (inactive) and 33.5 µM (inactive); in test [12], 2.03 µM (inactive) and 3.24 µM (inactive). In addition, the concentration for 50% growth inhibition (GI50) was 813 nM (active) and 703 nM (active) in test [13]; 29.1 µM (inactive) and 17.9 µM (inactive) in test [14]; 1.61 µM (inactive) and 1.51 µM (inactive) in [15]; 2.43 µM (inactive) and 2.48 µM (inactive) in test [17]; 1.22 µM (inactive) and 1.44 µM (inactive) in test [18]; 259 nM (active) and 258 nM (active) in test [20].
Take `CO/C(=N\N=C(/c1ccccc1)C(F)(F)F)c1ccncc1`: the GI50 is 25 µM (inactive) in test [1]; 28.3 µM (inactive) in test [3]; 27.5 µM (inactive) in [4]; 21.8 µM (inactive) in [5]; 66.8 µM (inactive) in test [6]; 38.6 µM (inactive) in [7]. Besides, the GI50 is > 100 µM (inactive) in test [8]; 43.7 µM (inactive) in test [9]; > 100 µM (inactive) in [10]; 27.6 µM (inactive) in [11]; 46.6 µM (inactive) in test [12]; 72.8 µM (inactive) in test [13]. For the same compound, the GI50 is 48.6 µM (inactive) in [14]; 63.2 µM (inactive) in test [17]; 19.1 µM (inactive) in test [18]; 27.5 µM in test [19]; 17.4 µM (inactive) in test [20].
